# Test results published in paper PMC11413853, “Discovery of VU6007496: Challenges in the Development of an M1 Positive Allosteric Modulator Backup Candidate” (ACS Chemical Neuroscience, 2024).
# What was measured:
# [1] = test system: 68 GPCRs, ion channels and transporters; assay: Lead Profiling Screen, radioligand displacement (panel summary); type: binding; settings: 10 μM; all 68 targets
# Procedure: In a 4-strain Ames assay, with and without S9, both 11 and 12 were negative.
# Table S1. Eurofins Lead Profiling Screen Data
# This is a radioligand binding panel of 67 targets including GPCRs, ion channels, transporters and nuclear hormones. Biochemical assay results are presented as the percent inhibition of specific binding at a 10 μM concentration of VU6007496 (Compound 11).
# Target/Protein Species % Inhibition at
# Androgen (Testosterone) Human -24
# Calcium Channel L-Type, Rat 12
# Calcium Channel L-Type, Rat -8
# Calcium Channel N-Type Rat 8
# Epidermal Growth Factor (EGF) Human 5
# GABAA, Flunitrazepam, Central Rat -3
# GABAA, Muscimol, Central Rat -1
# Glutamate, Kainate Rat -19
# Glutamate, NMDA, Agonism Rat 0
# Glutamate, NMDA, Glycine Rat 0
# Glutamate, NMDA, Phencyclidine Rat 7
# Imidazoline I2, Central Rat -9
# CYP1A2 = assay: CYP induction (mRNA) in cryopreserved human hepatocytes, CYP1A2; type: in vitro ADME; settings: three donors
# Text: To advance 11 as a candidate and into IND-enabling studies, we next needed to better understand its CYP profile to minimize drug–drug interactions in the clinic. […] We were pleased to see the contribution of another CYP beyond 3A4 for the metabolism of 11.[21] In parallel, we investigated the ability of PAM 11 to induce the expression of CYP450s (measuring mRNA) in cryopreserved human hepatocytes from three separate donors.
# MET ID in human liver S9 = type: in vitro ADME; settings: based on MS peak areas
# Text: Eight oxidative metabolites were identified, with the major metabolite in both rat and human being Metabolite A (VU6036463, 24), the result of oxidative N-demethylation of the southern pyrazole (Scheme 4). The majority of other oxidative metabolism occurred on the tetrahydropyran moiety and included ring opening, but there was no amide hydrolysis observed.[21]
# [2] = Hepatocyte MET ID, monkey; type: in vitro ADME; settings: 4-h incubation
# Text: More concerning were the results generated via outsourced multispecies hepatocyte MET ID, which were drastically different than the liver S9MET ID. The extent of metabolism for VU6007496 with rat, dog, monkey and human hepatocytes was 64.7, 51.5, 63.9 and 99.5%, respectively (Figure 8). […] In human hepatocytes, PAM 11 was metabolized primarily to Metabolite A (24), the result of oxidative N-demethylation of the southern pyrazole. The other minor metabolites were oxidation on the tetrahydropyran moiety and included ring opening (Metabolite F, 25).[21]
# Hepatocyte MET ID, mouse = type: in vitro ADME
# Text: We typically would not examine mouse hepatocyte MET ID, as mouse was not a safety species for the IND-enabling toxicology package, but with the unusual metabolism profile for human, and the lack of predictive cholinergic tox in the mouse phenotypic assay, we felt this was worthy of exploration. […] Clearly, based on the hepatocyte data, there is a tremendous difference in the concentration of parent 11 and metabolite composition, which sheds light on the mouse-rat disconnect for observed cholinergic toxicity in rat versus the more cholinergic sensitive mouse.
# Adrenergic α1B = assay: Eurofins radioligand binding; parameters: species or system Human; settings: specific binding
# Bradykinin B2 = assay: Eurofins radioligand binding; parameters: species or system Human; settings: specific binding
# [3] = test system: Calcium Channel L-Type, Benzothiazepine; assay: Eurofins radioligand binding; parameters: species or system Rat; settings: specific binding
# Endothelin ETB = assay: Eurofins radioligand binding; parameters: species or system Human; settings: specific binding
# Histamine H3 = assay: Eurofins radioligand binding; parameters: species or system Human; settings: specific binding
# Imidazoline I2, Central = assay: Eurofins radioligand binding; parameters: species or system Rat; settings: specific binding
# Opiate δ1 (OP1, DOP) = assay: Eurofins radioligand binding; parameters: species or system Human; settings: specific binding
# [4] = test system: Purinergic P2Y, Non-Selective; assay: Eurofins radioligand binding; parameters: species or system Rat; settings: specific binding
compound,measurement,setting,value
Cn1ccc(-c2ccc(Cc3cc(C(=O)NC4CCOCC4)nc4ccn(C)c34)cc2)n1 [compound 11],"radioligand displacement, Lead Profiling Screen",[1],< 50%
same,CYP1A2 induction (mRNA),CYP1A2,~3 fold
same,"extent of metabolism, human liver S9",MET ID in human liver S9,58.1%
same,"extent of metabolism, monkey hepatocytes",[2],63.9%
same,"extent of metabolism, mouse hepatocytes","Hepatocyte MET ID, mouse",95.4%
same,% Inhibition at 10 µM,Adrenergic α1B,14%
same,% Inhibition at 10 µM,Bradykinin B2,-3%
same,% Inhibition at 10 µM,[3],12%
same,% Inhibition at 10 µM,Endothelin ETB,-5%
same,% Inhibition at 10 µM,Histamine H3,-12%
same,% Inhibition at 10 µM,"Imidazoline I2, Central",-9%
same,% Inhibition at 10 µM,"Opiate δ1 (OP1, DOP)",5%
same,% Inhibition at 10 µM,[4],-9%
